Results from ChEMBL document CHEMBL1140148, “Structure-activity studies on a series of a 2-aminopyrimidine-containing histamine H4 receptor ligands” (J Med Chem, 2008).

Experiments:
[1] = biological target: Histamine H4 receptor (Rattus norvegicus) (UniProt Q91ZY1); assay: Agonist activity at rat histamine H4 receptor expressed in HEK293 cells coexpressing Gqi5 protein assessed as calcium flux by FLIPR assay relative to histamine; format: functional, cell-based
[2] = biological target: Histamine H4 receptor (Rattus norvegicus, UniProt Q91ZY1); assay: Agonist activity at rat histamine H4 receptor expressed in HEK293 cells coexpressing Gqi5 protein assessed as calcium flux by FLIPR assay; format: functional, cell-based
Chain of Histamine H4 receptor (Rattus norvegicus, UniProt Q91ZY1) (Q91ZY1 whole entry): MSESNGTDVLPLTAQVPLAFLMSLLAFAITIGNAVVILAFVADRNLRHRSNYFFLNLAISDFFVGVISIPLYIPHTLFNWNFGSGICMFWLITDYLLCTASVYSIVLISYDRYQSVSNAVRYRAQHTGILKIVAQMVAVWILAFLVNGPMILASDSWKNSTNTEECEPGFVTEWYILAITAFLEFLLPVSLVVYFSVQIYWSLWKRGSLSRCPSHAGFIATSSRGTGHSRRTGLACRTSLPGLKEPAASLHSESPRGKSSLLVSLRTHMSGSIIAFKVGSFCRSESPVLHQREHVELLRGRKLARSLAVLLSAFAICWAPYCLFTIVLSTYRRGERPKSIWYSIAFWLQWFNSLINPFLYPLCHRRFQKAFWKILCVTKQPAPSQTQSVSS

[3] = biological target: Histamine H4 receptor (Homo sapiens, UniProt Q9H3N8); settings: HEK293

Chain of Histamine H4 receptor (Rattus norvegicus) (Q91ZY1 whole entry): as above

| SMILES | Efficacy [1] [%] | EC50 [2] [nM] | pKb [3] |
| --- | --- | --- | --- |
| CN1CCN(c2cc(C34CC5CC(CC(C5)C3)C4)nc(N)n2)CC1 | 61 | 316 | 7.59 |
| CN(C)CCOc1cc(C(C)(C)C)nc(N)n1 | 67 | 302 | 7.02 |
| Cc1cc(N2CCN(C)CC2)nc(N)n1 | 77 | 363 | 7.2 |
| CN1CCN(c2cc(N)nc(C(C)(C)C)n2)CC1 | 50 | 4680 | 6.28 |
| CC(C)(C)c1cc(N2CCNCC2)nc(-n2cccc2)n1 | 84 | 2290 | 6.75 |
| CCN1CCN(c2cc(C(C)(C)C)nc(N)n2)CC1 | 55 | 245 | 7.86 |
| CN1CCN(c2cc(C(C)(C)C)ncn2)CC1 | 79 | 933 | 7.07 |
| CCN(CC)c1cc(N2CCN(C)CC2)nc(N)n1 | 90 | 355 | 7.55 |
| CN1CCC(c2cc(C(C)(C)C)nc(N)n2)CC1 | 55 | 3630 | 5.87 |
| CN(C)CCN(C)c1cc(C(C)(C)C)nc(N)n1 | 55 | 1120 | 5.71 |
| CC1CCN(c2cc(C(C)(C)C)nc(N)n2)CC1 | 64 | 23400 | 5.2 |
| CN1CCN(c2cc(N)nc(N)n2)CC1 | 71 | 219 | 6.37 |
| CN(C)CCCN(C)c1cc(C(C)(C)C)nc(N)n1 | 40 | 9770 | 5.13 |
| CN1CCN(c2cc(O)nc(N)n2)CC1 | 92 | 1480 | 4.44 |
| COc1cnc(N)nc1N1CCN(C)CC1 | 65 | 631 | 6.9 |

Other lines, results leading:

| Efficacy [1] [%] | EC50 [2] [nM] | pKb [3] | SMILES |
| --- | --- | --- | --- |
| – | 39.8 | 8.39 | CN1CCN(c2cc(-c3ccccc3)nc(N)n2)CC1 |
| 58 | 275 | 7.83 | CN1CCN(c2cc(-c3ccc(I)cc3)nc(N)n2)CC1 |
| 72 | 8320 | 5.32 | CN1CCN(c2nc(N)ncc2-c2ccccc2)CC1 |
| 63 | 229 | 7.38 | CN1CCN(c2cc(-c3ccncc3)nc(N)n2)CC1 |
| 84 | 1860 | 6.86 | CN1CCN(c2cc(N)nc(-c3ccc(C#N)cc3)c2)CC1 |
| 59 | 42.7 | 8.62 | Cc1cccc(-c2cc(N3CCN(C)CC3)nc(N)n2)c1 |
| 78 | 219 | 7.31 | CN1CCN(c2cc(-c3cnn(C)c3)nc(N)n2)CC1 |
| 91 | 102 | 8.05 | CN1CCN(c2cc(-c3cn(C)cn3)nc(N)n2)CC1 |
| 53 | 3240 | 5.91 | COc1ncc(-c2cc(N3CCN(C)CC3)nc(N)n2)cn1 |
| 61 | 7940 | 5.84 | CN1CCN(c2cc(-c3cncnc3)nc(N)n2)CC1 |
| 82 | 15.5 | 8.27 | CN1CCN(c2cc(-c3ccc(F)nc3F)nc(N)n2)CC1 |
| 81 | 195 | 6.81 | COc1cccc(OC)c1-c1cc(N2CCN(C)CC2)nc(N)n1 |
| 87 | 339 | 7.16 | CN1CCN(c2cc(N3CCOCC3)nc(N)n2)CC1 |
| 41 | 174 | 7.02 | CN1CCN(c2cc(-c3ccc4ccccc4c3)nc(N)n2)CC1 |
| 51 | 5130 | 6.04 | COc1c(-c2ccc(C#N)cc2)nc(N)nc1N1CCN(C)CC1 |
| 68 | 8910 | 5.99 | CN1CCN(c2cc(Sc3ccccc3)nc(N)n2)CC1 |
| 71 | 115 | 8.08 | COc1ccc(-c2cc(N3CCN(C)CC3)nc(N)n2)cc1 |
| 61 | 891 | 8.27 | CN1CCN(c2cc(-c3cccc(I)c3)nc(N)n2)CC1 |
